Patent publication US11179399B2, “6-heterocyclyl-4-morpholin-4-ylpyridine-2-one compounds useful for the treatment of cancer and diabetes” (Sprint Bioscience AB, priority 2016, dated 2021)
Like-named read-outs stand apart in the source and are kept apart here.

Columns and labels:
Vps34 enzyme = Vps34 enzyme (Homo sapiens (Human), UniProt Q8NEB9); assay: Vps34 biochemical assay (Adapta kinase assay); settings: 20 μM ATP and 200 μM PI:PS in substrate mix, 1 h at room temperature, read-out: Median IC50 uM Adapta
Experimental: Dilution series of compounds of the invention were prepared in DMSO at 100 times the final assay concentration (n1=n0/3 in 10 points). The compounds were further diluted to 4 times the assay concentration in assay buffer (Life technologies buffer Q, PV5125, diluted 5 times supplemented with 2 mM DTT and 2 mM MnCl2). 2.5 μl of the diluted compounds were added to a 384 well assay plate followed by 2.5 μl of 16.5 nM Vps34 enzyme (Life technologies, PV5126). Enzyme and compounds were pre-incubated at rt for 15 min. Then 5 μl of substrate mix containing 20 μM ATP (Life technologies, PV3227) and 200 μM PI:PS substrate (Life technologies, PV5122) in assay buffer was added to the wells containing compound and enzyme. Mixing was performed by pipetting several times. The reaction was incubated at room temperature for 1 h. Then 5 μl stop-detection mix, prepared as described in the Adapta kinase assay kit instructions (Life technologies, PV5099) containing Adapta Eu-anti-ADP antibody (2.3 nM), Alexa Fluor 647 ADP tracer (9 nM) and EDTA (30 mM) in TR-FRET buffer, was added to quench the reaction. Mixing was performed by pipetting several times. The assay plate was then incubated at room temperature for 30 min and read with Artemis micro plate reader. Percent inhibition of the compounds as compared to DMSO treated control samples was calculated. By the use of Dotmatics software compound concentration versus percent inhibition was fitted to generate IC50 values.

[1] = tested on: autophagy in HOS cells (GFP-LC3); assay: High content screening autophagy assay (GFP-LC3 foci); format: cell-based, Human; settings: foci area per cell, read-out: Median IC50 (uM) Cellular assay
Experimental: Human osteosarcoma cells (HOS) stably expressing a Green Fluorescent Protein (GFP) tagged LC3 (GFP-LC3) were used to determine the inhibitory effect on autophagy of proprietary compounds. For that purpose, autophagy was activated by using the mTOR inhibitor KU-0063794 at 500 nM in the presence of Bafilomycin A1 (Sigma-Aldrich) at 5 nM. Shortly, cells were plated overnight in clear bottom 96-well plates in DMEM-High Modified media (Hi-Clone Cat #SH30285.01). At the start of the experiment, the media was removed and replaced with fresh media containing the mTOR inhibitor, Bafilomycin A1 and the vehicle or a test compound as indicated. After 6 hours the media was removed, cells were washed twice with ice-cold phosphate buffered saline (PBS) and fixed with 4% paraformaldehyde for 20 minutes at room temperature. Then the cells were washed twice with ice-cold PBS before adding Hoechst 33342 at 1 μg/ml in PBS for nuclear staining. After incubation overnight at 4° C., cells were washed once with PBS to remove the excess of dye and 100 μl of PBS was added to each well. Images were acquired at 20× magnification, 6 images per well, using the ImageXpress automated microscope (Molecular Devices Inc.) and analyzed with MetaXpress software to identify LC3-GFP foci. Foci area per cell values were used to generate dose response curves and IC50 values were calculated using the non-linear fitting analysis in GraphPad Prism software.

[2] = Homo sapiens, HOS, 6 h, HOS cells with GFP-LC3, autophagy activated by KU-0063794 500 nM with Bafilomycin A1 5 nM

Chain of Vps34 enzyme (Q8NEB9 whole entry): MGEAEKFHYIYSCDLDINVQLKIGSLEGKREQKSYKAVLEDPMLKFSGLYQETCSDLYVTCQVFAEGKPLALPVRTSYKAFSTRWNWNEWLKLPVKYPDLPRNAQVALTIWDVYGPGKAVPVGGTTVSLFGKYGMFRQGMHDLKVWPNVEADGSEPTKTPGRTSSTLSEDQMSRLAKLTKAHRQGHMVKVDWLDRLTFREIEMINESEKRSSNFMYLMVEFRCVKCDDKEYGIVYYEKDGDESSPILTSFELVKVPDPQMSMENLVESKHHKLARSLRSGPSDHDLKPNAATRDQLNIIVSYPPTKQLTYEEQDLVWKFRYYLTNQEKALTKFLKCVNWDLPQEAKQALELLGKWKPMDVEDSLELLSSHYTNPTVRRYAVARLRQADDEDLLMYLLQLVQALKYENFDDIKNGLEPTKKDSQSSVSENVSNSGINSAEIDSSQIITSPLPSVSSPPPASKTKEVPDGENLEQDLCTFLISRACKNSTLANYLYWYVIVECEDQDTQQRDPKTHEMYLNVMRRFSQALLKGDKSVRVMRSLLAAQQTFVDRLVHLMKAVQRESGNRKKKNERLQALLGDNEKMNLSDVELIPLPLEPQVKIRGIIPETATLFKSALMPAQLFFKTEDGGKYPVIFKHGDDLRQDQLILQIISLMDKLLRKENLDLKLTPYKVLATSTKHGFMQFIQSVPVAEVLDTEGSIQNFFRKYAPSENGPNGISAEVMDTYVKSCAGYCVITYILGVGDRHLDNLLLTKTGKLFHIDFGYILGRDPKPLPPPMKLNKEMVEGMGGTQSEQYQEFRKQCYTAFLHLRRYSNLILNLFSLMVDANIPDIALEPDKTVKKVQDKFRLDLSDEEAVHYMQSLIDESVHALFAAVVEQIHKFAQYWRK

Row | IC50 (Vps34 enzyme) [µM] | IC50 [1, 2] [µM] | IC50 ([1]; HOS cells with GFP-LC3, autophagy activated by KU-0063794 500 nM with Bafilomycin A1 5 nM, 6 hours) [µM] | SMILES
1 | 0.006 | 0.09 |  | C[C@@H]1COCCN1c1cc(N2CCN(C(=O)Cc3ccc(F)cc3)CC2C(F)(F)F)[nH]c(=O)c1 (stereo partly drawn) [Example 47, 6-[4-[2-(4-fluorophenyl)acetyl]-2-(trifluoromethyl)piperazin-1-yl]-4-[(3R)-3-methylmorpholin-4-yl]-1H-pyridin-2-one]
2 | 0.003 | 0.03 |  | C[C@@H]1COCCN1c1cc(N2CCOCC2C(F)(F)F)[nH]c(=O)c1 (single isomer, unassigned) [Example 43_1]
3 | 0.04 | 0.2 |  | C[C@@H]1COCCN1c1cc(N2CCOCC2c2ccccc2)[nH]c(=O)c1 (single isomer, unassigned) [Example 26_1]
4 | 0.02 |  | 0.7 | C[C@@H]1COCCN1c1cc(N2CCCC2c2cccc(Cl)c2)[nH]c(=O)c1 (single isomer, unassigned) [Example 36_2]
5 | 0.004 | 0.02 |  | C[C@@H]1COCCN1c1cc(N2CCCCC2C(F)(F)F)[nH]c(=O)c1 (mixture of isomers) [Example 25, (R) and (S) 4-[(3R)-3-methylmorpholin-4-yl]-6-[2-(trifluoromethyl)-1-piperidyl]-1H-pyridin-2-one]
6 | 0.004 | 0.5 |  | COc1cccc(C2CCCN2c2cc(N3CCOCC3C)cc(=O)[nH]2)c1 (centres unmarked) [Example 7, 6-[2-(3-methoxyphenyl)pyrrolidin-1-yl]-4-(3-methylmorpholin-4-yl)-1H-pyridin-2-one]
7 | 0.009 | 0.7 |  | C[C@@H]1COCCN1c1cc(N2CCC[C@@H]2C(F)(F)F)[nH]c(=O)c1 [Example 35, 4-[(3R)-3-methylmorpholin-4-yl]-6-[(2R)-2-(trifluoromethyl)pyrrolidin-1-yl]-1H-pyridin-2-one]
8 | 0.02 | 1 |  | C[C@@H]1COCCN1c1cc(N2CCCC2c2ccccc2)[nH]c(=O)c1 (single isomer, unassigned) [Example 18_2]
9 | 0.05 | 5 |  | O=c1cc(N2CCOCC2)cc(N2CCCC2c2ccccc2)[nH]1 (centres unmarked) [Example 1, 4-morpholino-6-(2-phenylpyrrolidin-1-yl)-1H-pyridin-2-one]
10 | 0.006 | 0.3 |  | COc1cccc(C2CCCN2c2cc(N3CCOC[C@H]3C)cc(=O)[nH]2)c1 (single isomer, unassigned) [Example 17_2]
11 | 0.2 | 13 |  | O=c1cc(N2CCOCC2)cc(N2CCC[C@H]2c2ccccc2)[nH]1 [Example 3, 4-morpholino-6-[(2S)-2-phenylpyrrolidin-1-yl]-1H-pyridin-2-one]
12 | 0.02 | 0.03 |  | C[C@@H]1COCCN1c1cc(N2CCCC2c2cccc(Cl)c2)[nH]c(=O)c1 (mixture of isomers) [Example 36, (R) and (S) 6-[2-(3-chlorophenyl)pyrrolidin-1-yl]-4-[(3R)-3-methylmorpholin-4-yl]-1H-pyridin-2-one]
13 | 0.01 | 0.4 |  | C[C@@H]1COCCN1c1cc(N2CCCC2c2cccc(Cl)c2)[nH]c(=O)c1 (single isomer, unassigned) [Example 36_1]
